In patent publication US20260083865A1, “PROSTATE SPECIFIC MEMBRANE ANTIGEN (PSMA) LIGANDS AND USE THEREOF” (priority 2022, published 2026):
Like-named read-outs stand apart in the source and are kept apart here. Numbered stars: 1 amine (or outer) side, 2 acyl side, 3 side chain; on linkers, the order of the positions; unused ones are H or OH. Bridge positions count the residues as written; N and C are the ends. Square brackets hold non-standard residues; d marks the D form. Peptide text beside a SMILES is read from it. * marks the point of attachment. TtdsdLys(DOTA)NH2 = NC(=O)[C@@H](CCCCNC(=O)CN1CCN(CC(=O)O)CCN(CC(=O)O)CCN(CC(=O)O)CC1)NC(=O)CCC(=O)NCCCOCCOCCOCCCN*; DO3AM = NC(=O)CN1CCN(CC(N)=O)CCN(CC(=O)*)CCN(CC(N)=O)CC1; DOTA = O=C(O)CN1CCN(CC(=O)O)CCN(CC(=O)*)CCN(CC(=O)O)CC1; Phe(3-CF3) = N[C@@H](Cc1cccc(C(F)(F)F)c1)C(=O)O; Phe(4-Cl) = N[C@@H](Cc1ccc(Cl)cc1)C(=O)O; Phe(2-Cl) = N[C@@H](Cc1ccccc1Cl)C(=O)O; Arg(Me) = CNC(=N)NCCC[C@H](N)C(=O)O; X1 = O=C(CC1CCN([*:1])CC1)[*:2]; Lys(Me) = CNCCCC[C@H](N)C(=O)O; Tle = CC(C)(C)[C@H](N)C(=O)O; αMeS = C[C@](N)(CO)C(=O)O; Nle = CCCC[C@H](N)C(=O)O; Hexanoyl = CCCCCC(=O)*; Aib = CC(C)(N)C(=O)O; Sar = CNCC(=O)O; NHBu = CCCCN*

What was measured:
[1] = target: T1, Fc-fusion protein of human PSMA (hPSMA-Fc) (Homo sapiens, UniProt Q04609); assay: Surface plasmon resonance assay (Biacore T200, single cycle kinetic); format: binding; conditions: read-out: pKD CAT (converted)
T1 construct: purchased Acro Biosystems PSA-H5264
T1 sequence (Q04609 44-750 limits assumed): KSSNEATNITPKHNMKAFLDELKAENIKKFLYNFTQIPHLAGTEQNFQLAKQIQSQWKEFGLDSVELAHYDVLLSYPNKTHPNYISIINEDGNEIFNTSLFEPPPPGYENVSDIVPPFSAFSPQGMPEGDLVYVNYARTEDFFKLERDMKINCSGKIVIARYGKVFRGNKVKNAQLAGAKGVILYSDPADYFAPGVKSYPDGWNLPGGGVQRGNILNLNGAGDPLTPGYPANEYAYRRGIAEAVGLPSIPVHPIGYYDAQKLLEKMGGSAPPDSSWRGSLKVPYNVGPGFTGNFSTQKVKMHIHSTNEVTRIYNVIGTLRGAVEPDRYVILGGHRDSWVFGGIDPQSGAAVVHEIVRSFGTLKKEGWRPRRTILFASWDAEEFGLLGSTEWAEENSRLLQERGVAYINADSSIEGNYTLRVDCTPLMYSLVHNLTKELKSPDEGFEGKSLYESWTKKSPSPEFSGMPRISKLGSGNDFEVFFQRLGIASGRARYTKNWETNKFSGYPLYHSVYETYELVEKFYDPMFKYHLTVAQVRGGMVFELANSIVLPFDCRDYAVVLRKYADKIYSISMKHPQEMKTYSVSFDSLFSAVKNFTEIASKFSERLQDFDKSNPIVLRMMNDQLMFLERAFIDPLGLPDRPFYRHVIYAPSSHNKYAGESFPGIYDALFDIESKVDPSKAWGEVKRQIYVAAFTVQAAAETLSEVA
Method in brief: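 hPSMA-Fc was captured (~1000 RU) on an Fc-binding-peptide CM5 chip, and compounds were run in single cycle kinetic mode at 25° C in HBST with 0.1% DMSO. Double-blank-corrected sensorgrams were fitted to a 1:1 Langmuir model to give KD, reported as pKD.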

[2] = target: T2, PSMA-expressing C4-2 cells (Homo sapiens, UniProt Q04609); assay: FACS binding assay (competition with 50 nM PSM-0183); conditions: read-out: pIC50 [C4-2] CAT (converted)
T2 construct: PSMA-expressing C4-2 cells (ATCC, Cat. No. CRL-3314) were cultured in RPMI-1640; host or cells: C4-2 cells
T2 sequence (Q04609 whole entry): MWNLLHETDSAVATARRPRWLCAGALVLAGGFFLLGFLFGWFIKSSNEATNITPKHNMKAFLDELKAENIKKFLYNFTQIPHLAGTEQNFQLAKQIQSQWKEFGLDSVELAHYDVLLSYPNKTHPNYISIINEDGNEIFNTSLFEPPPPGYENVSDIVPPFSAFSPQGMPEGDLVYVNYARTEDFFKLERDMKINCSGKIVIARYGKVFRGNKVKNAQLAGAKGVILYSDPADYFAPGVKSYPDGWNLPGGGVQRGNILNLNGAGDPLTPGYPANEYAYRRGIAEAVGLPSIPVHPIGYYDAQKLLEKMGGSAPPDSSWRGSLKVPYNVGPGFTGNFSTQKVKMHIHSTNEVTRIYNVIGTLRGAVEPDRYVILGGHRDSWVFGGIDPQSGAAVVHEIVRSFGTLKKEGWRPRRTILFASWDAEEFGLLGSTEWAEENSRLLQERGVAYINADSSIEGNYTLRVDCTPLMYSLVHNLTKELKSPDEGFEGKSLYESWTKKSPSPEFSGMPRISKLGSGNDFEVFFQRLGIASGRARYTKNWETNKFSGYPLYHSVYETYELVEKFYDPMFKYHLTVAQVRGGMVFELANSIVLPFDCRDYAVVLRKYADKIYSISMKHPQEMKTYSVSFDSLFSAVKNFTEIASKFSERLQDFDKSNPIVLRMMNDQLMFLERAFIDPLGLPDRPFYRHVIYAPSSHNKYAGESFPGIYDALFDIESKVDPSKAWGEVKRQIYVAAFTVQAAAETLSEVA
Method in brief: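 C4-2 cells were incubated 1 h at 4 °C with 50 nM AF488-labelled peptide PSM-0183 plus increasing test compound concentrations, then washed twice in ice-cold buffer. Median fluorescence in the AF488 channel was read by flow cytometry. IC50/pIC50 was derived by 4PL fitting of MFI versus concentration.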

[3] = pKD category for PSMA SPR activity assay, hPSMA-Fc, 25° C.
[4] = pIC50 category of FACS binding, C4-2 cells
[5] = SPR, hPSMA-Fc, single cycle kinetic, 25° C., category
[6] = FACS binding, C4-2 cells, competition with 50 nM PSM-0183, category
[7] = FACS binding, C4-2 cells, category
[8] = PSMA SPR assay, hPSMA-Fc, 25° C., pKD category
[9] = FACS binding, PSMA-expressing C4-2 cells, pIC50 category

With `CNCCCC[C@@H]1NC(=O)[C@@H](NC(=O)[C@H](Cc2ccc(Cl)cc2)NC(=O)C(C)(C)NC(=O)[C@@H](NC(=O)CC2CCN(C(=O)CN3CCN(CC(=O)O)CCN(CC(=O)O)CCN(CC(=O)O)CC3)CC2)C(C)(C)C)CSSC[C@@H](C(=O)N[C@H](C(=O)N[C@H](C(N)=O)[C@@H](C)O)C(C)(C)C)NC(=O)[C@H](CC(N)=O)NC(=O)C(C)(C)NC(=O)[C@H](CCCNC(=N)NC)NC1=O` [PSM-0538, DOTA-Cmp-Tle-Aib-Pcf-[Cys-Lys (Mc)-Arg (Mc)-Aib-Asn-Cys]-Tle-Thr-NH2] ({DOTA}-[X1][Tle][Aib][Phe(4-Cl)]C[Lys(Me)][Arg(Me)][Aib]NC[Tle]T-NH2; disulfide 5-10) the Kd [1, 3] was 126 to 501 nM and the IC50 [2, 4] was 200 to 1260 nM.
`CC(=O)N[C@H](C(=O)NC(C)(C)C(=O)N[C@@H](Cc1ccccc1)C(=O)N[C@H]1CSSC[C@@H](C(=O)N[C@H](C(=O)N[C@H](C(=O)N[C@@H](CC(=O)O)C(=O)NCCCOCCOCCOCCCNC(=O)CCC(=O)N[C@H](CCCCNC(=O)CN2CCN(CC(=O)O)CCN(CC(=O)O)CCN(CC(=O)O)CC2)C(N)=O)[C@@H](C)O)C(C)(C)C)NC(=O)[C@H](CC(N)=O)NC(=O)C(C)(C)NC(=O)[C@H](CCCNC(=N)N)NC(=O)[C@H](CCCCN)NC1=O)[C@@H](C)O` [PSM-0212, Ac-Thr-Aib-Phe-[Cys-Lys-Arg-Aib-Asn-Cys]-Tle-Thr-Asp-Ttds-lys(DOTA)-NH2] (Ac-T[Aib]FCKR[Aib]NC[Tle]TD-{TtdsdLys(DOTA)NH2}; disulfide 4-9) showed a Kd [1, 5] of under 12.6 nM and an IC50 [2, 6] of under 200 nM.
Molecule `CCCC[C@H](NC(=O)[C@@H]1CSSC[C@H](NC(=O)[C@H](Cc2ccccc2)NC(=O)[C@H](C)NC(=O)[C@@H](NC(C)=O)[C@@H](C)O)C(=O)N[C@@H](CCCCN)C(=O)N2CCC[C@H]2C(=O)N[C@@H](C)C(=O)N[C@@H](CC(N)=O)C(=O)N1)C(=O)N[C@H](C(=O)N[C@@H](CC(=O)O)C(N)=O)[C@@H](C)O` [PSM-0564, Ac-Thr-Als-Phe-[Cys-Lys-Pro-Ala-Asn-Cys]-Nle-Thr-Asp-NH2] (Ac-TAFCKPANC[Nle]TD-NH2; disulfide 4-9) has a Kd ([1]; PSMA SPR assay, category) of over 501 nM and an IC50 [2, 7] of over 3160 nM.
`CC(=O)N[C@H](C(=O)N(C)CC(=O)N[C@@H](Cc1ccccc1)C(=O)N[C@H]1CSSC[C@@H](C(=O)N[C@H](C(=O)N[C@H](C(N)=O)[C@@H](C)O)C(C)(C)C)NC(=O)[C@H](CC(N)=O)NC(=O)C(C)(C)NC(=O)[C@H](CCCNC(=N)N)NC(=O)[C@H](CCCCN)NC1=O)[C@@H](C)O` [PSM-0408, Ac-Thr-Nmg-Phe-[Cys-Lys-Arg-Aib-Asn-Cys]-Tle-Thr-NH2] (Ac-T[Sar]FCKR[Aib]NC[Tle]T-NH2; disulfide 4-9) showed a Kd [1, 3] of 126 to 501 nM and an IC50 [2, 4] of 200 to 1260 nM.
Work on `CNC(=N)NCCC[C@@H]1NC(=O)[C@H](CCCCN)NC(=O)[C@@H](NC(=O)[C@H](Cc2ccc(Cl)cc2)NC(=O)C(C)(C)NC(=O)[C@@H](NC(=O)CC2CCN(C(=O)CN3CCN(CC(=O)O)CCN(CC(=O)O)CCN(CC(=O)O)CC3)CC2)[C@@H](C)O)CSSC[C@@H](C(=O)N[C@H](C(=O)N[C@H](C(N)=O)[C@@H](C)O)C(C)(C)C)NC(=O)[C@H](CC(N)=O)NC(=O)C(C)(C)NC1=O` [PSM-0351, DOTA-Cmp-Thr-Aib-Pcf-[Cys-Lys-Arg(Me)-Aib-Asn-Cys]-Tle-Thr-NH2] ({DOTA}-[X1]T[Aib][Phe(4-Cl)]CK[Arg(Me)][Aib]NC[Tle]T-NH2; disulfide 5-10) yielded a Kd [1, 8] of under 12.6 nM and an IC50 [2, 9] of under 200 nM.
Work on `CNCCCC[C@@H]1NC(=O)[C@@H](NC(=O)[C@H](Cc2ccc(Cl)cc2)NC(=O)C(C)(C)NC(=O)[C@@H](NC(=O)CC2CCN(C(=O)CN3CCN(CC(N)=O)CCN(CC(N)=O)CCN(CC(N)=O)CC3)CC2)[C@@H](C)O)CSSC[C@@H](C(=O)N[C@H](C(=O)N[C@H](C(N)=O)[C@@H](C)O)C(C)(C)C)NC(=O)[C@H](CC(N)=O)NC(=O)C(C)(C)NC(=O)[C@H](CCCNC(=N)NC)NC1=O` [PSM-0593, DOTAM-Cmp-Thr-Aib-Pcf-[Cys-Lys(Me)-Arg(Me)-Aib-Asn-Cys]-Tle-Thr-NH2] (DO3AM-[X1]T[Aib][Phe(4-Cl)]C[Lys(Me)][Arg(Me)][Aib]NC[Tle]T-NH2; disulfide 5-10) yielded a Kd ([1]; PSMA SPR assay, category) of under 12.6 nM and an IC50 [2, 7] of under 200 nM.
`CCCCNC(=O)[C@@H](NC(=O)[C@@H]1CSSC[C@H](NC(=O)[C@H](Cc2ccccc2)NC(=O)C(C)(C)NC(=O)[C@@H](NC(C)=O)[C@@H](C)O)C(=O)N[C@@H](CCCCN)C(=O)N[C@@H](CCCNC(=N)N)C(=O)NC(C)(C)C(=O)N[C@@H](CC(N)=O)C(=O)N1)C(C)(C)C` [PSM-0510, Ac-Thr-Aib-Phe-[Cys-Lys-Arg-Aib-Asn-Cys]-Tle-NHBu] (Ac-T[Aib]FCKR[Aib]NC[Tle]-NHBu; disulfide 4-9) was tested, and the Kd [1, 3] was under 12.6 nM and the IC50 [2, 4] was under 200 nM.
`CC(=O)N[C@H](C(=O)NC(C)(C)C(=O)N[C@@H](Cc1ccccc1Cl)C(=O)N[C@H]1CSSC[C@@H](C(=O)N[C@H](C(=O)N[C@H](C(=O)N[C@@H](CC(=O)O)C(N)=O)[C@@H](C)O)C(C)(C)C)NC(=O)[C@H](CC(N)=O)NC(=O)C(C)(C)NC(=O)[C@H](CCCNC(=N)N)NC(=O)[C@H](CCCCN)NC1=O)[C@@H](C)O` [PSM-0558, Ac-Thr-Aib-Ocf-[Cys-Lys-Arg-Aib-Asn-Cys]-Tle-Thr-Asp-NH2] (Ac-T[Aib][Phe(2-Cl)]CKR[Aib]NC[Tle]TD-NH2; disulfide 4-9) gave a Kd [1, 3] of 12.6 to 126 nM and an IC50 [2, 4] of under 200 nM.
Molecule `CC(=O)N[C@H](C(=O)NC(C)(C)C(=O)N[C@@H](Cc1ccccc1)C(=O)N[C@H]1CSSC[C@@H](C(=O)N[C@H](C(=O)N[C@H](C(N)=O)[C@@H](C)O)C(C)(C)C)NC(=O)[C@H](CO)NC(=O)C(C)(C)NC(=O)[C@H](CCCNC(=N)N)NC(=O)[C@H](CCCCN)NC1=O)[C@@H](C)O` [PSM-0279, Ac-Thr-Aib-Phe-[Cys-Lys-Arg-Aib-Ser-Cys]-Tle-Thr-NH2] (Ac-T[Aib]FCKR[Aib]SC[Tle]T-NH2; disulfide 4-9) has a Kd [1, 8] of under 12.6 nM and an IC50 [2, 9] of under 200 nM.
Work on `C[C@@H](O)[C@H](NC(=O)[C@@H](NC(=O)[C@@H]1CSSC[C@H](NC(=O)[C@H](Cc2ccc(Cl)cc2)NC(=O)[C@](C)(CO)NC(=O)[C@@H](NC(=O)CC2CCN(C(=O)CN3CCN(CC(=O)O)CCN(CC(=O)O)CCN(CC(=O)O)CC3)CC2)[C@@H](C)O)C(=O)N[C@@H](CCCCN)C(=O)N[C@@H](CCCNC(=N)N)C(=O)NC(C)(C)C(=O)N[C@@H](CC(N)=O)C(=O)N1)C(C)(C)C)C(N)=O` [PSM-0369, DOTA-Cmp-Thr-Ams-Pcf-[Cys-Lys-Arg-Aib-Asn-Cys]-Tle-Thr-NH2] ({DOTA}-[X1]T[αMeS][Phe(4-Cl)]CKR[Aib]NC[Tle]T-NH2; disulfide 5-10) yielded a Kd [1, 3] of under 12.6 nM and an IC50 [2, 4] of under 200 nM.
`CC(=O)N[C@H](C(=O)N[C@@H](C)C(=O)N[C@@H](Cc1ccccc1)C(=O)N[C@H]1CSSC[C@@H](C(=O)N[C@@H](CC(C)C)C(=O)N[C@H](C(=O)N[C@@H](CC(=O)O)C(=O)NCCCOCCOCCOCCCNC(=O)CCC(=O)N[C@H](CCCCNC(=O)CN2CCN(CC(=O)O)CCN(CC(=O)O)CCN(CC(=O)O)CC2)C(N)=O)[C@@H](C)O)NC(=O)[C@H](CC(N)=O)NC(=O)[C@H](C)NC(=O)[C@H](CCCNC(=N)N)NC(=O)[C@H](CCCCN)NC1=O)[C@@H](C)O` [PSM-0330, Ac-Thr-Ala-Phe-[Cys-Lys-Arg-Ala-Asn-Cys]-Leu-Thr-Asp-Ttds-lys(DOTA)-NH2] (Ac-TAFCKRANCLTD-{TtdsdLys(DOTA)NH2}; disulfide 4-9) showed a Kd [1, 8] of 12.6 to 126 nM and an IC50 [2, 9] of 200 to 1260 nM.
`CC(=O)N[C@H](C(=O)NC(C)(C)C(=O)N[C@@H](Cc1cccc(C(F)(F)F)c1)C(=O)N[C@H]1CSSC[C@@H](C(=O)N[C@H](C(=O)N[C@H](C(N)=O)[C@@H](C)O)C(C)(C)C)NC(=O)[C@H](CC(N)=O)NC(=O)C(C)(C)NC(=O)[C@H](CCCNC(=N)N)NC(=O)[C@H](CCCCN)NC1=O)[C@@H](C)O` [PSM-0264, Ac-Thr-Aib-Mtf-[Cys-Lys-Arg-Aib-Asn-Cys]-Tle-Thr-NH2] (Ac-T[Aib][Phe(3-CF3)]CKR[Aib]NC[Tle]T-NH2; disulfide 4-9) was tested, and the Kd [1, 5] was under 12.6 nM and the IC50 [2, 6] was under 200 nM.
`CCCCCC(=O)N[C@H](C(=O)N[C@@H](C)C(=O)N[C@@H](Cc1ccccc1)C(=O)N[C@H]1CSSC[C@@H](C(=O)N[C@@H](CC(C)C)C(=O)N[C@H](C(=O)N[C@@H](CC(=O)O)C(=O)NCCCOCCOCCOCCCNC(=O)CCC(=O)N[C@H](CCCCNC(=O)CN2CCN(CC(=O)O)CCN(CC(=O)O)CCN(CC(=O)O)CC2)C(N)=O)[C@@H](C)O)NC(=O)[C@H](CC(N)=O)NC(=O)[C@H](C)NC(=O)[C@H](CCCNC(=N)N)NC(=O)[C@H](CCCCN)NC1=O)[C@@H](C)O` [PSM-0405, Hex-Thr-Ala-Phe-[Cys-Lys-Arg-Ala-Asn-Cys]-Leu-Thr-Asp-Ttds-lys(DOTA)-NH2] (Hexanoyl-TAFCKRANCLTD-{TtdsdLys(DOTA)NH2}; disulfide 4-9) showed a Kd [1, 3] of 12.6 to 126 nM and an IC50 [2, 4] of under 200 nM.
